Read-outs that look alike come from different tables or passages of the source. Non-standard residues stand in square brackets, D forms with d. Residues, ends and D or L forms follow the SMILES beside them. *: point of attachment. Palmitoyl = CCCCCCCCCCCCCCCC(=O)*
Columns and labels:
Format in all cases: cell-based, Enterococcus faecalis
[1] = system: E. faecalis (ATCC #v583)
Protocol: (§1) E. faecalis (ATCC #v583), was cultured overnight in 5 ml brain-heart infusion (BHI) (Difco, Detroit, MI, USA) broth supplemented with 2 mg/ml vancomycin (Sigma-Aldrich), at 37°C under aerobic conditions. The top 4 ml were transferred to a fresh test tube and the optical density (OD) was determined according to the specific experiment.
(§2) The antibacterial activity of the peptides was examined using the microdilution assay. Briefly, the bacterial suspension (at OD 0.3) was diluted at a ratio of 1∶1000. Aliquots of 150 µl of bacterial suspension were added to 50 µl of peptide dilutions in phosphate buffered saline (PBS) (Sigma-Aldrich) (in triplicate for each concentration) in a 96-well plate (Nunc 96 microtiter plates, Roskilde, Denmark). The optical density (595 nm) in each well was recorded every 20 min using a microplate reader (VERSAmax tunable microplate reader, molecular devices, Sunnyvale, CA, USA) at 37°C for 18–24 hrs. The minimal inhibitory concentration (MIC) was determined as the concentration which inhibited visible growth after 18–24 hrs.

[2] = system: E. faecalis biofilms; assay: Antibiofilm activity, crystal violet biomass assay; conditions: biofilm grown 72 hrs in saliva-coated 96 well plates in presence of test material
Protocol: (§3) Antibiofilm activity was tested on E. faecalis biofilms grown for 72 hrs. Biofilm was formed in microtiter plates (24 well plates for the ATP bioluminescence assay and 96 well plates for the crystal violet biomass assay and confocal laser spectroscopy). Saliva was collected from one donor and DL-Dithiolthreitol (DTT) (Thermo Scientific, Abu-Gosh, Israel) was added to 2.5 mM. The suspension was kept at 4°C for 10 min and then centrifuged for 15 min at 6,500×g. The supernatant was transferred to a fresh sterile tube and diluted to 25% with sterile double distilled water (DDW). The diluted saliva was disinfected using a 0.2 µm vacuum-driven filter (0.22 µm, […], Jet biofil, Belgium). […] Bacterial metabolism in the attached biofilm was assessed using ATP bioluminescence. Biofilm mass was measured using crystal violet as described below.
The total biofilm yield was assessed using crystal violet staining as follows. […] The acetic acid was transferred to wells of a new 96-well microtiter plate that was placed in a microplate reader and absorbance (OD595 nm) was measured.
Figure 3 Effect of the antimicrobial peptides on the development of E. faecalis biofilms. […] The biofilm was stained with 1% crystal violet measured at OD 595 nm (see Materials and Methods). […]

[3] = system: E. faecalis (ATCC #v583); assay: Growth curves with soluble peptide: percent growth reduction and generation time; conditions: concentrations below 5 µg/ml
Protocol: as §1
as §2, with “Aliquots of 150 µl of bacterial suspension were added to 50 µl of peptide dilutions in phosphate buffered saline (PBS) (Sigma-Aldrich) (in triplicate for each concentration) in a 96-well plate (Nunc 96 microtiter plates, Roskilde, Denmark).” left out
The presented data are the mean and standard deviation of triplicates of a representative experiment repeated three times. The growth mean, and multiple comparisons of growth inhibition by AMP (compared with the growth of untreated bacteria) were calculated from each growth curve using Student’s t-test. […]
Figure 1 E. faecalis growth is inhibited by C16-KGGK but not by hBD3. Growth of E. faecalis was measured (see Materials and Methods) in the presence of increasing concentrations of hBD3 (A) or of the lipopeptide KGGK (B). […]

[4] = system: E. faecalis biofilm; assay: Bacterial vitality in biofilm, live/dead staining with confocal microscopy; conditions: 72 hrs contact during biofilm formation
Protocol: as §3
Confocal laser scanning microscopy (CLSM) was used to explore the vitality of bacteria in the different depth layers of the biofilm. […] To read the results directly, the wells were coated with emulsion oil to prevent dehydration. Fluorescence emission was detected using a Zeiss LSM 410 confocal laser scanning microscope (Carl Zeiss Microscopy, Jena, Germany). Red fluorescence was measured at 630 nm and green fluorescence at 520 nm; objective lenses: x60/oil, 1.4 numerical aperture. […]

[5] = system: E. faecalis biofilm; assay: Antibiofilm activity, ATP bioluminescence; conditions: biofilm exposed 72 hrs, 24 well plates; compared with untreated E. faecalis
Protocol: as §3
Bacterial killing was evaluated by measuring intracellular ATP levels, an energy parameter commonly used as an indicator of cell injury and viability. […] ATP levels were determined using an ATP bioluminescence assay kit (CLS 2, Roch Diagnostics, Mannheim, Germany). In a 96 microtiter plate designed for luminescence assay (Thermo Scientific, NUNC, 96-well optical Btm Plt white, Rochester, NY, USA) a 100 µl volume of the samples was added to 6 wells for each tested group. […]

Molecule: CCCCCCCCCCCCCCCC(=O)N[C@@H](CCCCN)C(=O)N[C@@H](CC(C)C)C(=O)N[C@@H](CC(C)C)C(=O)N[C@@H](CCCCN)C(N)=O [C16-KLLK] (Palmitoyl-KLLK-NH2)
- MIC ([1]; ATCC #v583): 6 to 12.5 µg/mL

Molecule: CCCCCCCCCCCCCCCC(=O)N[C@@H](CCCCN)C(=O)N[C@@H](CCCCN)C(=O)N[C@@H](CCCCN)C(N)=O [C16-KKK]
- MIC ([1]; ATCC #v583): 6 to 12.5 µg/mL
- anti-biofilm effect (biofilm mass, crystal violet, OD 595 nm) [2]: showed anti-biofilm activity

Molecule: CC(C)C[C@H](NC(=O)[C@H](CC(C)C)NC(=O)[C@@H](CCCCN)NC(=O)[C@H](CC(C)C)NC(=O)[C@H](CC(C)C)NC(=O)[C@H](CCCCN)NC(=O)[C@@H](CCCCN)NC(=O)[C@@H](CC(C)C)NC(=O)[C@H](CC(C)C)NC(=O)[C@@H](CCCCN)NC(=O)[C@H](CCCCN)NC(=O)[C@H](CC(C)C)NC(=O)[C@@H](CC(C)C)NC(=O)[C@H](CCCCN)NC(=O)[C@@H](N)CC(C)C)C(N)=O [Amp-1D] (H-LK[dL]LK[dK]L[dL][dK]KLL[dK]LL-NH2; N-terminus assumed)
- MIC ([1]; ATCC #v583): >25 µg/mL

Molecule: CCCCCCCCCCCCCCCC(=O)N[C@@H](CCCCN)C(=O)N[C@@H](C)C(=O)N[C@@H](C)C(=O)N[C@@H](CCCCN)C(N)=O [C16-KAAK] (Palmitoyl-KAAK-NH2)
- MIC ([1]; ATCC #v583): 12.5 to 25 µg/mL

Molecule: GIINTLQKYYCRVRGGRCAVLSCLPKEEQIGKCSTRGRKCCRRKK [hBD3, Human recombinant β-defensin 3 obtained from PeproTech, reference compound]
- MIC ([1]; planktonic E. faecalis ATCC v583, BHI, 37°C, 18–24 hrs, OD 595 nm, triplicate per concentration): > 20 µg/mL

Molecule: CCCCCCCCCCCCCCCC(=O)N[C@@H](CCCCN)C(=O)NCC(=O)NCC(=O)N[C@@H](CCCCN)C(N)=O [C16-KGGK] (Palmitoyl-KGGK-NH2)
- MIC ([1]; ATCC #v583): 4 to 5 µg/mL
- concentration causing complete growth inhibition ([1]; planktonic E. faecalis, microdilution, 18–24 hrs): 5 µg/mL
- growth of E. faecalis at sub-inhibitory concentrations [3]: accelerated
- vitality of biofilm bacteria (live/dead stain, CLSM) [4]: induced death in the biofilm bacteria
- ATP levels in biofilm (luminescence) [5]: relatively low compared with that in the untreated control

Source: publication PMC4184853, “Biohybrid Polymer-Antimicrobial Peptide Medium against Enterococcus faecalis” (PLoS ONE, 2014)
